Experimental data published in patent US20240180929A1, “TREATMENT OF INFECTIOUS DISEASES USING BCL-2 FAMILY PROTEIN INHIBITORS” (TEXAS BIOMEDICAL RESEARCH INSTITUTE, priority 2020, published 2024).

How the values were obtained:
M.tb-lux = format: cell-based, Mycobacterium tuberculosis
M.tb [1] = experiment: CFU assay, M.tb-infected murine BMDMs; format: cell-based, Mycobacterium tuberculosis; conditions: 30 μM pan inhibitor, 4 days of treatment, MOI 1
M.tb [2] = experiment: CFU assay, M.tb-infected murine lung macrophages; format: cell-based, Mycobacterium tuberculosis; conditions: 30 μM pan inhibitor, 2 days of treatment, MOI 1
M.tb [3] = format: in vivo, BALB/c mice; conditions: isoniazid positive control, vs placebo
M.tb [4] = experiment: CFU assay, M.tb-infected human in vitro TB granulomas; format: cell-based, Mycobacterium tuberculosis; conditions: 30 μM sabutoclax, 7 days

Cc1c(-c2c(-c3ccc(F)o3)sc3ncnc(O[C@H](Cc4ccccc4OCc4ccnn4CC(F)(F)F)C(=O)O)c23)ccc(OCCN2CCN(C)CC2)c1Cl [S63845] was tested, and the “M.tb growth in human MDMs (luciferase)” value (M.tb-lux) was “reduced M.tb growth in donor 1 after 4 days, but to a limited extent relative to the pan inhibitor Sabutoclax”.
With CC(C)c1ccccc1Cc1cc(C(=O)Nc2ccc(S(=O)(=O)c3ccccc3C(C)(C)C)cc2)c(O)c(O)c1O [TW37] the “M.tb CFUs normalized to DMSO control in BMDMs” value (M.tb [1]) was “reduction in the number of M.tb CFUs” and the “number of M.tb CFUs in lung macrophages” value (M.tb [2]) was “reduction in the number of M.tb CFUs”.
In the case of NNC(=O)c1ccncc1 [isoniazid], the “M.tb growth in murine lungs (CFU)” value (M.tb [3]) is reported as “significantly reduced M.tb growth in murine lungs”, the “M.tb growth in murine spleen (CFU)” value (M.tb [3]) is reported as “significantly reduced M.tb growth” and the “acid fast stained M.tb in the mouse lung” value (M.tb [3]) is reported as “reduction in bacteria”. For the same molecule, the “lung inflammation (hematoxylin and eosin stain)” value (M.tb [3]) was “reduced inflammation”.
Cc1cc2c(C(=O)NC[C@H](C)c3ccccc3)c(O)c(O)cc2c(O)c1-c1c(C)cc2c(C(=O)NC[C@H](C)c3ccccc3)c(O)c(O)cc2c1O [sabutoclax] was tested, and the “M.tb CFUs normalized to DMSO control in BMDMs” value (M.tb [1]) was “reduction in the number of M.tb CFUs”, the “number of M.tb CFUs in lung macrophages” value (M.tb [2]) was “reduction in the number of M.tb CFUs” and the “M.tb growth in human granulomas (CFU)” value (M.tb [4]) was “significant reduction in M.tb growth”.
